Consider 18 molecules from US20220378747A1, “TOPICAL COMPOSITION FOR TREATING SKIN WOUNDS” (priority 2021, published 2022).

Common to all, as to assay type: physicochemical
Data set [1] is described as follows: 0.1M Zinc Gluconate and 0.1M Amino Acid Solutions: pH and precipitation on adjusting pH to 7.0. The conditions noted are these: for pH: 0.1M zinc gluconate and 0.1M amino acid solution, before adjustment; for Observations: 0.1M zinc gluconate and 0.1M amino acid, pH adjusted to 7.0 with NaOH. From the text: There are seven standard amino acids with uncharged polar R groups which can hydrogen-bond with water. […] The basic amino acids, in which the R groups have a net positive charge at pH 7.0, all have six carbon atoms. […] Histidine is the only amino acid having buffering capacity near pH 7.0 with a pK′ of the R group near 7.0. All of the basic amino acids as shown in the following table are suitable for use in the present invention: […]

Data set [2] in a line: pH of 2M amino acid and 1M zinc gluconate solution in water (Example 11). The settings on record: 2M amino acid and 1M zinc gluconate dissolved in water, before neutralization. On the procedure:
A formulation in powder form containing zinc and lysine which when dissolved in water forms a neutral solution was prepared as follows: Two M lysine and 1M zinc gluconate was dissolved in water to form a solution having a pH 7.4 and was neutralized to pH 7 with HCl. After the zinc and amino solution was neutralized, it was frozen immediately in liquid nitrogen. The frozen solution was then lyophilized for 24 hours to remove water.

A short description of the next data set: pH of Zinc Solutions. From the text:
Other minerals which may be administered in the subject form include calcium, iron, magnesium, manganese and the like.

With `CC[C@H](C)[C@H](N)C(=O)O` [Isoleucine], in data set [1], the “acidity of zinc gluconate neutralized by adding the amino acid and adjusting the pH to 7.0” value (“acidity of zinc gluconate neutralized” below) is recorded as “can be neutralized”; the pH came out at 5.1.

Take `N[C@@H](Cc1c[nH]cn1)C(=O)O` [Histidine]: the “acidity of zinc gluconate neutralized” value in data set [1] is on record as “can be neutralized”. The molecule further had a pH of solution in data set [2] of 5.5.

As for `N[C@@H](Cc1ccccc1)C(=O)O` [Phenylalanine], in data set [1], the pH amounted to 4.9 and the Observations result is reported as “precipitates”.

Consider `NC(=O)CC[C@H](N)C(=O)O` [Glutamine], for which, in data set [1], the “acidity of zinc gluconate neutralized” value was “can be neutralized”; the pH worked out at 5.0.

For the molecule `CC(C)[C@H](N)C(=O)O` [Valine], in data set [1], the “acidity of zinc gluconate neutralized” value is listed as “can be neutralized”; the pH came to 5.1.

For the molecule `[Cl-].[Cl-].[Zn+2]` [Zinc chloride], the figures for the pH in the data set “pH of Zinc Solutions” (0.1M solution) and in “pH of Zinc Solutions” (0.2M solution) were 6.4 and 6.2, respectively.

As to `N[C@@H](Cc1c[nH]c2ccccc12)C(=O)O` [Tryptophan], the Observations result in data set [1] was “Not soluble”.

Regarding `C[C@@H](O)[C@H](N)C(=O)O` [Threonine], in data set [1], the “acidity of zinc gluconate neutralized” value was “can be neutralized”; the Observations entry is “does not precipitate”.

As for `O=S(=O)([O-])[O-].[Zn+2]` [Zinc sulfate], the pH is 5.7 in “pH of Zinc Solutions” (0.1M solution) and 5.45 in “pH of Zinc Solutions” (0.2M solution).

`CSCC[C@H](N)C(=O)O` [Methionine]: in data set [1], the Observations entry is given as “pH adjusted to 7.0 with NaOH precipitates”.

Regarding `CC(=O)[O-].CC(=O)[O-].[Zn+2]` [Zinc acetate], the pH in “pH of Zinc Solutions” (0.1M solution) is 6.7; in the data set “pH of Zinc Solutions” (0.2M solution), 6.6.

On to `N[C@@H](CS)C(=O)O` [Cysteine], for which, in data set [1], the “acidity of zinc gluconate neutralized” value is listed as “cannot be made”; the Observations result is reported as “precipitates”.

In the case of `NCCCC[C@H](N)C(=O)O` [Lysine], in data set [1], the “acidity of zinc gluconate neutralized” value is given as “can be neutralized”; the pH was 7.4. The pH of solution in data set [2] is given as 7.4.

In the case of `N[C@@H](CO)C(=O)O` [Serine], in data set [1], the “acidity of zinc gluconate neutralized” value is on record as “can be neutralized”; the Observations entry is reported as “does not precipitate”.

For `C[C@H](N)C(=O)O` [Alanine], in data set [1], the “acidity of zinc gluconate neutralized” value is on record as “can be neutralized”; the pH came out at 5.1.

In the case of `CC(C)C[C@H](N)C(=O)O` [Leucine], in data set [1], the pH is on record as 5.0 and the Observations result is given as “pH adjusted to 7.0 with NaOH precipitates”.

For the molecule `NC(=O)C[C@H](N)C(=O)O` [Asparagine], in data set [1], the “acidity of zinc gluconate neutralized” value is “can be neutralized”; the pH is reported as 4.8.

On to Zinc gluconate, for which the results for the pH in the data set “pH of Zinc Solutions” (0.1M solution) and in the data set “pH of Zinc Solutions” (0.2M solution) were 5.85 and 5.65, respectively. For the same molecule, in data set [1] (zinc salt alone, without amino acid), the “neutralization with sodium hydroxide” value is listed as “cannot be neutralized with sodium hydroxide without precipitating the mixture”.
